Measurements from article PMC6958387, “Biological Evaluation of Arylsemicarbazone Derivatives as Potential Anticancer Agents” (Pharmaceuticals, 2019).

How the values were obtained:
HT-29 = assay: MTT cytotoxicity, 72 h; assay type: cell-based, human; settings: Homo sapiens, HT-29, 72 h of incubation
Description: (§1) The cytotoxicity assessment was performed against three human cancer cell lines in suspension (K562, HL-60 and MOLT-4) and four adhered (HEp-2, NCI-H292, HT-29 and MCF-7).
(§2) The cells were obtained from the Cell Bank of Rio de Janeiro and maintained in the Laboratory of Cell Culture of the Department of Antibiotics of the Federal University of Pernambuco. The lines K562 (myeloblastic leukaemia), HL-60 (promyelocytic leukemia) and MOLT-4 (lymphoblastic leukemia) were cultured in RPMI 1640 medium and the lines HEp-2 (larynx carcinoma), NCI-H292 (lung carcinoma), HT-29 (colon adenocarcinoma) and MCF-7 (breast adenocarcinoma) were cultured in DMEM medium, supplemented with 10% fetal bovine serum, 2 mM glutamine, 100 U/mL penicillin and 100 μg/mL streptomycin (Gibco™ Life Technologies), at 37 °C and 5% CO2.
(§3) The evaluation of the cytotoxicity of the compounds was performed by the method of 3-(4,5-dimethyl-2-thiazolyl)-2,5-diphenyl-2H-tetrazolium bromide (MTT) (Sigma Aldrich Co., St. Louis, MO, USA). To perform the assay the cells were seeded in 96-well plates at the following concentrations: HL-60 and K562 (0.3 × 10^6 cells/mL); MOLT-4 and PBMC (10^6 cells/mL); NCI-H292, HT-29, HEp-2 e MCF-7 (10^5 cells/mL). Briefly, the compounds previously dissolved in DMSO (dimethylsulfoxide, Vetec, São Paulo, Brazil), were diluted in medium and added to each well at the desired concentrations. For the calculation of the concentration that inhibits 50% of cell growth (IC50) the compounds were serially diluted to obtain the final concentrations between 0.19–25 μg/mL. Doxorubicin was used as the standard in the concentration range between (0.078–10 μg/mL). After 72 h of contact of the cells with the compounds, it was added to each well 25 μL of MTT solution (5 mg/mL). Plates were left for another 3 h in incubator at 37 °C and at the end of that period the supernatant was aspirated. To perform the reading, 100 μL of DMSO was added in each well for the dissolution of the formazan crystals. The amount of formazan was measured by reading the plate at 560 nm absorbance. The IC50 was calculated from the nonlinear regression in the Prisma 7.0 software (GraphPad, San Diego, CA, USA). Each sample was tested in triplicate in three independent experiments.

MCF-7 = assay: MTT cytotoxicity, 72 h; assay type: cell-based, human; settings: Homo sapiens, MCF7, 72 h of incubation
Description: as §1, §2, §3

K562 = assay: MTT cytotoxicity, 72 h; assay type: cell-based, human; settings: Homo sapiens, K562, 72 h of incubation
Description: as §1, §2, §3

HEp-2 = assay: MTT cytotoxicity, 72 h; assay type: cell-based, human; settings: Homo sapiens, HEp-2, 72 h of incubation
Description: as §1, §2, §3

NCI-H292 = assay: MTT cytotoxicity, 72 h; assay type: cell-based, human; settings: Homo sapiens, NCI-H292, 72 h of incubation
Description: as §1, §2, §3

HL-60 = assay: MTT cytotoxicity, 72 h; assay type: cell-based, human; settings: Homo sapiens, HL-60; MTT, 72 h of incubation
Description: as §1, §2, §3

MOLT-4 = assay: MTT cytotoxicity, 72 h; assay type: cell-based, human; settings: Homo sapiens, MOLT-4, 72 h of incubation
Description: as §1, §2, §3

[1] = test system: Peripheral Blood Mononuclear Cells (PBMCs); assay: MTT cytotoxicity in normal cells, 72 h; assay type: cell-based, human; settings: Homo sapiens, PBMC, 72 h of incubation
Description: In order to evaluate the cytotoxic potential in normal cells, all the derivatives were tested against Peripheral Blood Mononuclear Cells (PBMCs) and the most promising compounds were again compounds 3c and 4a, which offered more selectivity against the cancer cells.
Mononuclear cells were obtained from the peripheral blood of healthy volunteers by heparin tube collection and isolated by Ficoll-Histopaque gradient centrifugation. After centrifugation, the cells were harvested, washed and resuspended in RPMI 1640 medium supplemented with 20% fetal bovine serum, 2 mM glutamine, 100 U/mL penicillin and 100 μg/mL streptomycin (Gibco™ Life Technologies, Waltham, MA, USA). The phytohemagglutinin mitogen 2% was also added into the culture medium. After that, using the neubauer chamber, the cells were counted and plated in a 96-well plate at a concentration of 10^6 cells/mL and then were maintained for overnight under incubation at 37 °C and 5% CO2 [65].
as §3

[2] = test system: K562, HL-60, MOLT-4, HEp-2, NCI-H292, HT-29 and MCF-7 tumor cell lines; assay: Cytotoxic screening against the panel of tumor cell lines (MTT); assay type: cell-based, human; settings: result in words
Description: as §1, §2
as §3, with “Plates were left for another 3 h in incubator at 37 °C and at the end of that period the supernatant was aspirated.” left out, “Each sample was tested in triplicate in three independent experiments.” left out

HL-60 cells [3] = assay: Mitochondrial transmembrane potential (rhodamine 123), flow cytometry; assay type: cell-based, human; settings: 0.11 μM, 72 h
Description: In this sense, in order to evaluate if compounds 3c and 4a induce apoptosis by alterating the mitochondria transmembrane potential, this assay was performed by flow cytometry using the fluorochrome rhodamine 123, because this is able to accumulate in cells with unchanged mitochondrial transmembrane potential.
(§4) HL-60 cells (3 × 10^5) were plated in 24-well plates and treated with the compounds 3c (13 and 26 μM) and 4a (11 and 22 μM) for 72 h at 37 °C with 5% CO2. In all trials, doxorubicin was used as a positive control. After the incubation period, an aliquot of 500 μL of treated and untreated cells suspension was transferred to an Eppendorf tube and centrifuged to remove the supernatant and continue the protocol of the test. In the cell viability and annexin V assays, kits were used, ViaCount kit and guava nexin kit (Guava Technologies), respectively. The protocols performed in these tests followed the manufacturer’s instructions. For to analyze mitochondrial depolarization, rhodamine 123 fluorescent dye was used. In the assay for cell cycle analysis and DNA fragmentation propidium iodide was used. The experiments were performed on Guava EasyCyte HT (Merck-Millipore) flow cytometer, acquiring 5000 events. The data were analyzed in Guava-Soft™ software version 2.7. Three independent experiments were performed in triplicate.

HL-60 cells [4] = assay: Annexin V-FITC/7-AAD test, flow cytometry; assay type: cell-based, human; settings: 0.11 μM, 72 h
Description: Aiming to better study the mechanism of induction of death involved in HL-60 cells after treatment with compounds 3c and 4a, a flow cytometric test was performed after double staining with annexin V-FITC/7-AAD. This assay is based on the ability of annexin V to bind with high affinity to phosphatidylserine which is translocated to the outer membrane of apoptotic cells and the 7-AAD dye binds to the DNA of cells with loss of membrane integrity. Thus, in this test it is possible to identify four distinct populations: viable cells [Annexin V(−) and 7-AAD(−)], initial apoptotic cells [Annexin V(+) and 7-AAD(−)], late apoptotic cells [Annexin V(+) and 7-AAD(+)] and dead cells [Annexin V(−) and 7-AAD (+)] [59].
as §4

Which IC50 (HT-29) does the source give for `NC(=O)N/N=C/c1ccco1` [Compound 3l, 2-Furfuraldehyde Semicarbazone] here?
Its IC50 is > 100 µM.

And the IC50 (MCF-7)?
Its IC50 is > 100 µM.

And the IC50 (K562)?
The IC50 was > 100 µM.

And the IC50 (HEp-2)?
Its IC50 is > 100 µM.

And the IC50 (NCI-H292)?
The IC50 was > 100 µM.

What about the IC50 (HL-60) of the same compound?
Its IC50 is > 100 µM.

And the IC50 (MOLT-4)?
The IC50 was > 100 µM.

And the melting point?
The melting point was 202 to 204 °C.

What about the IC50 [1] of the same compound?
Its IC50 is > 100 µM.

And the “antiproliferative activity against the tested cell lines” value [2]?
Its value is “inactive”.

Which results are given for `COc1cccc2c1C(=O)c1c(O)c3c(c(O)c1C2=O)C[C@@](O)(C(=O)CO)C[C@@H]3O[C@H]1C[C@H](N)[C@H](O)[C@H](C)O1` [Doxo, doxorubicin, reference compound]?
IC50 (HT-29): 0.73 ± 0.09 µM; IC50 (MCF-7): 0.2 ± 0.03 µM; IC50 (K562): 1.47 ± 0.09 µM; IC50 (HEp-2): 1.28 ± 0.11 µM; IC50 (NCI-H292): 0.18 ± 0.02 µM; IC50 (HL-60): 0.11 ± 0.01 µM; IC50 (MOLT-4): 0.73 ± 0.08 µM; IC50 [1]: 5.33 ± 0.62 µM; depolarized cells (HL-60 cells [3]): 41.8%; cells in initial apoptosis [Annexin V(+) and 7-AAD(−)] (HL-60 cells [4]): 23.7%; cells in late apoptosis [Annexin V(+) and 7-AAD(+)] (HL-60 cells [4]): 19%
